Values quoted from earlier work as cited in US20260146034A1, “1H-CYCLOPENTA[B]BENZOFURAN DERIVATIVES FOR THE PREVENTION AND TREATMENT OF VIRUS DISEASES” (priority 2022, published 2026).

Assays:
[1] = system: RNA helicase enzyme elF4A; conditions: previous studies
[2] = system: corona viruses, SARS and MERS virus
coronavirus = conditions: J. Virology, 2011, 6381
SARS-COV-2 = conditions: eFFECTOR's Therapeutic, Apr. 30, 2020

Q: For Silvesterol, which “inhibition of the RNA helicase enzyme elF4A” value [1] is on record?
A: potent and selective inhibitor

Q: What about the “antiviral activity against corona viruses, SARS and MERS virus” value [2] of the same compound?
A: broadspectrum antiviral activity

Q: Which blocking coronavirus replication (coronavirus) does the source give for 4E2RCat here?
A: capable of blocking coronavirus replication

Q: With `COc1cc2c(c(OC)n1)[C@]1(O)[C@H](O)[C@H](CN(C)C)[C@@H](c3ccccc3)[C@]1(c1ccc(C#N)cc1)O2` [Zotatifin] as the compound, how does the “anti viral activity against SARS-COV-2” value (SARS-COV-2) read?
A: shows anti viral activity
